Assay results published in ChEMBL document CHEMBL3046650, “Hydrogenated and Dichiorinated N-Phthaloyl-L-threonines and Their Dehydrated Phthalimides with Root Growth-promoting Activity for Rice Seedings” (J Pestic Sci, 2000).
Activity calls are given as the source filed them. The calls are words filed in the database; no cut-off is given here.

Key:
Vigna mungo [1] = assay: Growth promoting activity in Vigna mungo (black gram) seedling hypocotyl at 1 x 10' -6 to 1 x 10' -3 M; assay type: functional, organism-based
Lactuca sativa [2] = assay: Growth promoting activity in Lactuca sativa cv. Gokuwase-CISCO (lettuce) seedling hypocotyl at 1 x 10' -6 to 1 x 10' -3 M; assay type: functional, organism-based
Lactuca sativa [3] = assay: Phytotoxicity against Lactuca sativa cv. Gokuwase-CISCO (lettuce) seedling assessed as hypocotyl growth inhibition at 1 x 10' -3 M; assay type: organism-based; conditions: in vivo, 1000 µM
Oryza sativa [4] = assay: Phytotoxicity against Oryza sativa cv. Koshihikari (rice) seedling assessed as root necrosis at 1 x 10' -3 M; assay type: organism-based; conditions: in vivo, 1000 µM
Vigna mungo [5] = assay: Growth promoting activity in Vigna mungo (black gram) seedling root at 1 x 10' -6 to 1 x 10' -3 M; assay type: functional, organism-based
Oryza sativa [6] = assay: Growth promoting activity in Oryza sativa cv. Koshihikari (rice) seedling shoot at 1 x 10' -5 M; assay type: functional, organism-based
Vigna mungo [7] = assay: Phytotoxicity against Vigna mungo (black gram) seedling assessed as hypocotyl growth inhibition at 1 x 10' -6 to 1 x 10' -3 M; assay type: organism-based; conditions: in vivo
Oryza sativa [8] = assay: Growth promoting activity in Oryza sativa cv. Koshihikari (rice) seedling root at 1 x 10' -4 M relative to control; assay type: functional
[9] = tested on: Brassica rapa subsp. pekinensis; assay: Growth promoting activity in Brassica rapa subsp. pekinensis (Chinese cabbage) cv. Kinshu seedling root at 1 x 10' -3 M; assay type: functional, organism-based
Lactuca sativa [10] = assay: Growth promoting activity in Lactuca sativa cv. Gokuwase-CISCO (lettuce) seedling root at 1 x 10' -6 to 1 x 10' -3 M; assay type: functional, organism-based
Oryza sativa [11] = assay: Growth promoting activity in Oryza sativa cv. Koshihikari (rice) seedling root at 1 x 10' -5 M relative to control; assay type: functional, organism-based
Vigna mungo [12] = assay: Phytotoxicity against Vigna mungo (black gram) seedling assessed as root growth inhibition at 1 x 10' -6 to 1 x 10' -3 M; assay type: organism-based; conditions: in vivo
Lactuca sativa [13] = assay: Phytotoxicity against Lactuca sativa cv. Gokuwase-CISCO (lettuce) seedling assessed as root necrosis at 1 x 10' -3 M; assay type: organism-based; conditions: in vivo, 1000 µM
[14] = tested on: Brassica rapa subsp. pekinensis; assay: Phytotoxicity against Brassica rapa subsp. pekinensis (Chinese cabbage) cv. Kinshu seedling assessed as root growth inhibition at 1 x 10' -4 M; assay type: organism-based; conditions: in vivo, 100 µM
Oryza sativa [15] = assay: Phytotoxicity against Oryza sativa cv. Koshihikari (rice) seedling assessed as root growth inhibition at 1 x 10' -3 M; assay type: organism-based; conditions: in vivo, 1000 µM
Lactuca sativa [16] = assay: Phytotoxicity against Lactuca sativa cv. Gokuwase-CISCO (lettuce) seedling assessed as hypocotyl necrosis at 1 x 10' -3 M; assay type: organism-based; conditions: in vivo, 1000 µM
[17] = tested on: Brassica rapa subsp. pekinensis; assay: Phytotoxicity against Brassica rapa subsp. pekinensis (Chinese cabbage) cv. Kinshu seedling assessed as root growth inhibition at 1 x 10' -6 to 1 x 10' -3 M; assay type: organism-based; conditions: in vivo
[18] = tested on: Brassica rapa subsp. pekinensis; assay: Growth promoting activity in Brassica rapa subsp. pekinensis (Chinese cabbage) cv. Kinshu seedling root at 1 x 10' -6 to 1 x 10' -3 M; assay type: functional, organism-based
Oryza sativa [19] = assay: Phytotoxicity against Oryza sativa cv. Koshihikari (rice) seedling assessed as shoot growth inhibition; assay type: organism-based; conditions: in vivo

Row | Compound | Activity (Vigna mungo [1]) | Activity (Lactuca sativa [2]) | Activity (Lactuca sativa [3]) | Activity (Oryza sativa [4]) | Activity (Vigna mungo [5]) | Activity (Oryza sativa [6]) | Activity (Vigna mungo [7]) | fold change (FC) (Oryza sativa [8]) | Activity [9] | Activity (Lactuca sativa [10]) | Activity (Oryza sativa [11]) | Activity (Vigna mungo [12]) | Activity (Lactuca sativa [13]) | Activity [14] | Activity (Oryza sativa [15]) | Activity (Lactuca sativa [16]) | Activity [17] | Activity [18] | Activity (Oryza sativa [19])
1 | C/C=C(/C(=O)O)N1C(=O)C2=C(CCCC2)C1=O | inactive | inactive | Toxic | Toxic | inactive | Active | Non-toxic | 2.1 | Active | inactive | inactive | Non-toxic | Toxic | Toxic |  |  |  |  | 
2 | C/C=C(/C(=O)O)N1C(=O)c2ccccc2C1=O | inactive | inactive | Toxic |  | inactive |  | Non-toxic | 2.1 | Active | inactive | Active | Non-toxic | Toxic |  | Toxic |  |  |  | 
3 | C[C@@H](O)[C@@H](C(=O)O)N1C(=O)[C@H]2CCCC[C@H]2C1=O [CIS-1,2,3,4,5,6-HEXAHYDROPHTHALOYL-L-THREONINE] | inactive | inactive |  | Non-toxic | inactive | Active | Non-toxic | 1.6 |  | inactive | inactive | Non-toxic | Toxic |  |  | Toxic | Non-toxic | inactive | Non-toxic
4 | C/C=C(/C(=O)O)N1C(=O)[C@H]2CCCC[C@H]2C1=O | inactive | inactive |  | Non-toxic | inactive | Active | Non-toxic | 2.1 |  | inactive | inactive | Non-toxic | Toxic |  |  | Toxic | Non-toxic | inactive | Non-toxic
5 | C[C@@H](O)[C@@H](C(=O)O)N1C(=O)[C@H]2CC=CC[C@H]2C1=O [CIS-1,2,3,6-TETRAHYDROPHTHALOYL-L-THREONINE] | inactive | inactive |  | Non-toxic | inactive |  | Non-toxic | 1.6 |  | inactive | inactive | Non-toxic | Toxic |  |  | Toxic | Non-toxic | inactive | 
6 | C/C=C(/C(=O)O)N1C(=O)[C@H]2CC=CC[C@H]2C1=O | inactive | inactive | Toxic | Non-toxic | inactive |  | Non-toxic | 2.1 | Active | inactive | inactive | Non-toxic | Toxic |  |  |  |  |  | 
7 | C[C@@H](O)[C@@H](C(=O)O)N1C(=O)C2=C(CCCC2)C1=O [N-(3,4,5,6-TETRAHYDROPHTHALOYL)-L-THREONINE] | inactive | inactive | Toxic | Toxic | inactive | Active | Non-toxic | 1.6 |  | inactive | inactive | Non-toxic | Toxic |  |  |  | Non-toxic | inactive | 
8 | C/C=C(/C(=O)O)N1C(=O)c2cc(Cl)c(Cl)cc2C1=O [4,5-Cl2P-BTEA] | inactive | inactive |  | Non-toxic | inactive |  | Non-toxic | 2.1 |  | inactive | Active | Non-toxic | Toxic |  |  | Toxic | Non-toxic | inactive | 
9 | C/C=C(/C(=O)O)N1C(=O)[C@H]2CCCC[C@@H]2C1=O (relative stereo) | inactive | inactive | Toxic | Non-toxic | inactive |  | Non-toxic | 2.1 |  | inactive | inactive | Non-toxic | Toxic |  |  |  | Non-toxic | inactive | Non-toxic
10 | C[C@@H](O)[C@@H](C(=O)O)N1C(=O)c2cc(Cl)c(Cl)cc2C1=O [N-(4,5-DICHLOROPHTHALOYL)-L-THREONINE] | inactive | inactive |  | Non-toxic | inactive |  | Non-toxic | 1.6 |  | inactive | Active | Non-toxic | Toxic |  |  | Toxic | Non-toxic | inactive | 
11 | C[C@@H](O)[C@@H](C(=O)O)N1C(=O)[C@H]2CCCC[C@@H]2C1=O [TRANS-1,2,3,4,5,6-HEXAHYDROPHTHALOYL-L-THREONINE] | inactive | inactive | Toxic | Non-toxic | inactive |  | Non-toxic | 1.6 |  | inactive | inactive | Non-toxic | Toxic |  |  |  | Non-toxic | inactive | Non-toxic
12 | C[C@@H](O)[C@@H](C(=O)O)N1C(=O)c2ccccc2C1=O [N PHTHALOYL-L-THREONINE] | inactive | inactive | Toxic |  | inactive |  | Non-toxic | 1.6 |  | inactive | Active | Non-toxic | Toxic |  | Toxic |  | Non-toxic | inactive | 
